Data set [1] relates to Ear Edema Caused by Arachidonic Acid. The data set is described as follows: Suppressing effect on ear edema caused by arachidonic acid. In kind it is in vivo, ICR male mice. The note with it: Mus musculus, 1 h, thickness after one hour, read-out: Suppression rate (ear edema); for inhibition in vivo at 0.1 mg: topical, local application, 0.1 mg/auricle, 30 min before inflammatory agent (2 mg arachidonic acid); for inhibition in vivo at 50 mg/kg: oral administration, one hour before inflammatory agent (2 mg arachidonic acid). As for the experimental part: The thickness of auricles of ICR male mice of 6 week-age was measured by using a micrometer. On both sides of one of the auricles of each mouse, was applied 2 mg of arachidonic acid dissolved in acetone as the inflammatory agent to cause inflammation thereon. The thickness of the auricle after one hour of the application was measured and the difference between the thickness obtained and the thickness before the application was taken as the value of ear edema. The compound according to the present invention dissolved in ethanol or only ethanol as a control were orally administrated or applied localy. In the case of oral administration, 50 mg/kg of the compound according to the present invention was administrated one hour before the application of the inflammatory agent, and 0.1 mg/auricle was applied 30 min before the application in the case of local application.
The suppression rate of ear edema of the compound according to the present invention was calculated based on the ratio of the suppression to the value of ear edema in the control group and the results are shown in Tables 6 and 7 (Compound numbers in Tables 6 and 7 correspond to the Compound numbers in Table 1).
Further, benoxaprofen and NDGA were used as the comparison.

Another data set concerns the target T1, lipoxygenase (Rattus norvegicus, UniProt P12527).
T1 construct: abdominal cells of Wister rat (7 to 12 week-age); endogenous in cells; host or cells: abdominal (peritoneal) cells of Wister [Wistar] rat
T1 sequence (P12527 1-673): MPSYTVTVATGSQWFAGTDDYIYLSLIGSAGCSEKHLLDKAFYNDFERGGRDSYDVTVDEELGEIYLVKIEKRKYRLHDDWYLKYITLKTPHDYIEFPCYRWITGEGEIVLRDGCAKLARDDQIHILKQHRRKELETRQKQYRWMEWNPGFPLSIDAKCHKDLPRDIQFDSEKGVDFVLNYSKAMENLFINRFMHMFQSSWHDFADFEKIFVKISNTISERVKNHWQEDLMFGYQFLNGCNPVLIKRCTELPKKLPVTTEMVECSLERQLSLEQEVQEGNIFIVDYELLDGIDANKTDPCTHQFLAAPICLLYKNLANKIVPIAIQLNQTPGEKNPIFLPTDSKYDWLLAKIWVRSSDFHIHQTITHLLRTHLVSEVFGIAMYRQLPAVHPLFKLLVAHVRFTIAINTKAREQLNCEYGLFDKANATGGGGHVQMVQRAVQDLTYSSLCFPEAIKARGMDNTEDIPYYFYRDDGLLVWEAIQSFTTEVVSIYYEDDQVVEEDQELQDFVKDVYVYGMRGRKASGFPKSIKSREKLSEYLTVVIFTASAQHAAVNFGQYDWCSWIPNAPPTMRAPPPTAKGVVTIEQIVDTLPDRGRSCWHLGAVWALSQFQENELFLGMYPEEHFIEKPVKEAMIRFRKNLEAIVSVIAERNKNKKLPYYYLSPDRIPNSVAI
In words: Inhibition activity to lipoxygenase (leukotriene production by rat abdominal cells, bioassay on guinea pig ileum). Conditions: read-out: Inhibition intensity; for inhibition at 1 µM: 10^-6 M (final concentration). In kind it is cell-based, Wister rat. As to the method: In 0.9 ml of Hunks' solution, were suspended 2×10^6 of abdominal cells of Wister rat (7 to 12 week-age) and incubated at 37° C. for 15 min after adding 10^-7 M of arachidonic acid and the compound of the present invention dissolved in ethanol, or only 10^-7 M of arachidonic acid and ethanol as a control. Further, 100 μl of 5 μg/μl of calcium inonophore A-23187 was added and the incubation was further continued at 37° C. for 15 min to produce leukotrienes. After cooling the reaction mixture with ice for 20 min to terminate the reaction, the reaction mixture was subjected to centrifugation at 4° C. for 10 min at 3000 rpm. The inhibition activity to lipoxygenase of the compound according to the present invention was measured by bioassay of leukotrienes contained in the resultant supernatants by using a Magunus' device while taking the contraction reaction of ileum extirpated from guinea pig as the indication. The inhibition rate of the compound according to the present invention was calculated based on the ratio of the suppression due to the compound with respect to the extent of the contraction reaction in the control group, and the intensity of inhibition based thereon is shown in the following Tables 4 and 5 (Compound numbers in Tables 4 and 5 correspond to the Compound numbers in Table 1).

Details of data set [2]: species or system ICR male mice. The note with it: mouse, in vivo, po, 2000 mg/kg. As for the experimental part: The compounds according to the present invention (Compound No. 44 in Table 1) suspended in an aqueous 1% tragacanth solution was orally administrated by 2000 mg/kg to 6 week-age ICR male mice.
The conditions of data set [3]: literature; cited from earlier work.
Setting [4] is: 10^-5 M (final concentration), rat abdominal cells, calcium ionophore A-23187.
Where [5] appears, read: rat abdominal cells, calcium ionophore A-23187.

Like-named read-outs stand apart in the source and are kept apart here.

As usually defined, the inhibition is the share of the control response that was lost under treatment. On to `CC(Cc1ccc(O)c(O)c1)C(C)Cc1ccc(O)c(O)c1` (centres unmarked) [NDGA, Nordihydroguaiaretic acid, reference compound], for which the inhibition in vivo at 0.1 mg in data set [1] came out at 18.2%. In addition, the inhibition at 10 µM at lipoxygenase lay within 0 to 20%.
In the case of `C(#CCOc1ccccc1Cc1nc2ccccc2o1)CCCC#Cc1ccccc1` [Compound 90], the inhibition at 10 µM on lipoxygenase (setting [4]) lay in the range of 80 to 100%. Further, at lipoxygenase (setting [5]), the inhibition at 1 µM fell in the range of 20 to 50%.
Regarding `CC#CCOc1cccc(Cl)c1Cc1nc2ccccc2o1` [Compound 100], the inhibition at 10 µM at lipoxygenase (setting [4]) fell in the range of 80 to 100%. The inhibition at 1 µM at lipoxygenase (setting [5]) was 50 to 80%.
With `C#CCCCOc1ccc(Cl)cc1Cc1nc2ccccc2o1` [Compound 112], the inhibition at 10 µM on lipoxygenase (setting [4]) fell in the range of 50 to 80%. Moreover, the inhibition at 1 µM at lipoxygenase (setting [5]) was 20 to 50%.
For the molecule `Cc1ccccc1OCCCCOc1ccc(Cc2nc3ccccc3o2)cc1` [Compound 10], the inhibition at 10 µM at lipoxygenase (setting [4]) lay in the range of 50 to 80%. For the same molecule, at lipoxygenase (setting [5]), the inhibition at 1 µM lay within 20 to 50%.
Turning to `Clc1ccccc1OCCCCOc1ccc(Cc2nc3ccccc3o2)cc1` [Compound 7], at lipoxygenase (setting [4]), the inhibition at 10 µM was 50 to 80%. Also, the inhibition at 1 µM at lipoxygenase (setting [5]) fell in the range of 20 to 50%.
For `c1ccc(OCCCOc2ccc(Cc3nc4ccccc4o3)cc2)cc1` [Compound 2, 2-[4-(3-phenoxy)propoxybenzyl]benzoxazole] the same measures were 80 to 100% and 20 to 50%.
As for `Clc1cc(Cc2nc3ccccc3o2)ccc1OCCCCOc1ccccc1` [Compound 44], in data set [2], the Anatomic inspection result was “no abnormality was observed”; the “Condition and body weight” value is “no change was recognized at all”. Moreover, the inhibition in vivo at 50 mg/kg in data set [1] is 80.7%. Further, the inhibition at 10 µM on lipoxygenase (setting [4]) was in the range of 80 to 100%. Besides, the inhibition at 1 µM on lipoxygenase (setting [5]) was 50 to 80%.
As for `CC#CCOc1ccccc1Cc1nc2ccccc2o1` [Compound 96], in data set [1], the inhibition in vivo at 50 mg/kg was determined as 71.8%. On lipoxygenase (setting [4]), the inhibition at 10 µM lay within 80 to 100%.
As to `c1ccc(COCCCOc2ccc(Cc3nc4ccccc4o3)cc2)cc1` [Compound 19], the inhibition at 10 µM at lipoxygenase (setting [4]) lay in the range of 80 to 100%. For the same molecule, on lipoxygenase (setting [5]), the inhibition at 1 µM fell in the range of 50 to 80%.
Take `C(#Cc1ccccc1)CCCOc1ccccc1Cc1nc2ccccc2o1` [Compound 89]: at lipoxygenase (setting [4]), the inhibition at 10 µM lay within 50 to 80%. Also, the inhibition at 1 µM on lipoxygenase (setting [5]) fell in the range of 20 to 50%.
`Clc1ccc(OCCCCOc2ccc(Cc3nc4ccccc4o3)cc2Cl)cc1` [Compound 62]: in data set [1], the inhibition in vivo at 0.1 mg worked out at 32.9%. Moreover, the inhibition at 10 µM on lipoxygenase (setting [4]) lay within 50 to 80%. Further, the inhibition at 1 µM on lipoxygenase (setting [5]) lay within 20 to 50%.
As for `CC#CCOc1ccc(Cc2nc3ccccc3o2)c(Cl)c1` [Compound 34], the inhibition in vivo at 0.1 mg in data set [1] is 42.9%. At lipoxygenase (setting [4]), the inhibition at 10 µM fell in the range of 50 to 80%.
As for `Fc1ccc(OCCCCOc2ccc(Cc3nc4ccccc4o3)cc2)cc1` [Compound 15], the inhibition at 10 µM on lipoxygenase (setting [4]) lay within 50 to 80%. Moreover, at lipoxygenase (setting [5]), the inhibition at 1 µM is 20 to 50%.
Consider `c1ccc(OCCCCCCOc2ccc(Cc3nc4ccccc4o3)cc2)cc1` [Compound 5], for which the inhibition at 10 µM on lipoxygenase (setting [4]) lay within 80 to 100%. The inhibition at 1 µM on lipoxygenase (setting [5]) lay within 20 to 50%.
For `C#CCCCC#CCOc1ccccc1Cc1nc2ccccc2o1` [Compound 98], the inhibition in vivo at 0.1 mg in data set [1] is 50.2%. Besides, at lipoxygenase (setting [4]), the inhibition at 10 µM was in the range of 50 to 80%.
In the case of `CC(C(=O)O)c1ccc2oc(-c3ccc(Cl)cc3)nc2c1` (centres unmarked) [Benoxaprofen, benoxaprofen], the inhibition in vivo at 50 mg/kg in data set [1] stood at 15.3%. Further, in data set [3], the adverse effect entry was “grave adverse effect” and the effect on psoriasis result is “effective to psoriasis”.
As to `C#CCCCOc1c(Cl)cccc1Cc1nc(-c2ccccc2)co1` [Compound 125], the inhibition in vivo at 0.1 mg in data set [1] worked out at 41.7%.
`CCCCOc1cccc(Cc2nc3ccccc3o2)c1` [Compound 71]: the inhibition in vivo at 50 mg/kg in data set [1] worked out at 77.9%. For the same molecule, the inhibition at 10 µM at lipoxygenase (setting [4]) was 80 to 100%.
For `COCCCCOc1ccc(Cc2nc3ccccc3o2)cc1Cl` [Compound 51], at lipoxygenase (setting [4]), the inhibition at 10 µM lay within 80 to 100%. For the same molecule, the inhibition at 1 µM on lipoxygenase (setting [5]) lay in the range of 50 to 80%.
Regarding `OCC#CCCCC#CCCCOc1ccc(Cc2nc3ccccc3o2)cc1Cl` [Compound 57], the inhibition in vivo at 0.1 mg in data set [1] came out at 49.8%. Moreover, the inhibition at 10 µM on lipoxygenase (setting [4]) was 80 to 100%.
Turning to `C(#Cc1ccccc1)CCCOc1ccc(Cc2nc3ccccc3o2)cc1` [Compound 29], on lipoxygenase (setting [4]), the inhibition at 10 µM lay within 80 to 100%. Further, on lipoxygenase (setting [5]), the inhibition at 1 µM lay in the range of 20 to 50%.
On to `CC#CCOc1cccc(Cc2nc(-c3ccccc3)co2)c1` [Compound 129], for which, at lipoxygenase (setting [4]), the inhibition at 10 µM lay in the range of 50 to 80%.
Regarding `CCCC#CCOc1ccc(Cc2nc3ccccc3o2)cc1` [Compound 37], the inhibition in vivo at 0.1 mg in data set [1] was 42.1%. Also, the inhibition at 10 µM at lipoxygenase (setting [4]) fell in the range of 80 to 100%. For the same molecule, on lipoxygenase (setting [5]), the inhibition at 1 µM lay in the range of 20 to 50%.
As for `COCCCCOc1ccc(Cc2nc3ccccc3o2)cc1` [Compound 25], the inhibition at 10 µM on lipoxygenase (setting [4]) was in the range of 50 to 80%. Also, the inhibition at 1 µM on lipoxygenase (setting [5]) is 20 to 50%.
With `CC#CCOc1cccc(Cc2nc3ccccc3o2)c1` [Compound 73], in data set [1], the inhibition in vivo at 50 mg/kg was 85.1%. In addition, the inhibition at 10 µM on lipoxygenase (setting [4]) fell in the range of 80 to 100%. For the same molecule, the inhibition at 1 µM on lipoxygenase (setting [5]) was 20 to 50%.
For the molecule `c1ccc(OCCCOc2ccc(Cc3nc4ccccc4s3)cc2)cc1` [Compound 1, 2-[4-(3-phenoxy)propoxybenzyl]benzothiazole], the inhibition at 10 µM on lipoxygenase (setting [4]) lay within 80 to 100%. The inhibition at 1 µM on lipoxygenase (setting [5]) is 20 to 50%.
In the case of `Clc1cc(Cc2nc3ccccc3o2)ccc1OCCCC#Cc1ccccc1` [Compound 47], the inhibition at 10 µM at lipoxygenase (setting [4]) was 80 to 100%.
`Clc1cc(OCCCCOc2ccccc2)ccc1Cc1nc2ccccc2o1` [Compound 6]: the inhibition in vivo at 0.1 mg in data set [1] amounted to 48.5%. Moreover, the inhibition at 10 µM on lipoxygenase (setting [4]) is 80 to 100%.
